Among the data in US9701664B2, “Fused 1,4-dihydrodioxin derivatives as inhibitors of heat shock transcription factor 1” (Cancer Research Technology Limited, priority 2013, dated 2017) are IC50 values, retold here.

Where two headings read alike, the source gives them in different places.

The test system of one test is HSP72 in U2OS cells. Put plainly: Cell-based ELISA (Cellisa) assay, U2OS cells: inhibition of 17-AAG-induced HSP72. The following applies: U2OS cells (Examples 1-168).
The next test concerns U2OS cells. As to the kind of experiment: Titre Blue cell viability assay, U2OS cells. It is filed as cell-based.

In the case of “N-(5-amino-2-((dimethylamino)methyl)phenyl)-2-methylquinoline-6-carboxamide [Example 165]”, the concentration for half-maximal inhibition (IC50) (as a rule, the midpoint of a concentration-inhibition curve) with HSP72 in U2OS cells worked out at 5 nM; in the test on U2OS cells, 1 nM.

Turning to `Cc1ccc(NC(=O)c2ccc3c(c2)OCCO3)cc1NC(=O)c1cnc2[nH]ccc2c1` [Example 100, N-(5-(2,3-dihydrobenzo[b][1,4]dioxine-6-carboxamido)-2-methylphenyl)-1H-pyrrolo[2,3-b]pyridine-5-carboxamide], the half-maximal inhibitory concentration (IC50) came out at 43 nM in the test on HSP72 in U2OS cells (Homo sapiens) and 54 nM in the test on U2OS cells (Homo sapiens, U2OS).

On to `Cc1ccc(NC(=O)c2ccc3c(c2)OCCO3)cc1NC(=O)c1ccc2nc(CCN(C)C)ccc2c1` [Example 69, N-(5-(2,3-dihydrobenzo[b][1,4]dioxine-6-carboxamido)-2-methylphenyl)-2-(2-(dimethylamino)ethyl)quinoline-6-carboxamide], for which the IC50 in the test on HSP72 in U2OS cells (Homo sapiens) is 57 nM; with U2OS cells (Homo sapiens, U2OS) it was 305 nM.

Consider `Cc1ccc(NC(=O)c2ccc3c(c2)OCCO3)cc1NC(=O)c1ccc2c(c1)CCO2` [Example 6, N-(3-(2,3-dihydrobenzofuran-5-carboxamido)-4-methylphenyl)-2,3-dihydrobenzo[b][1,4]dioxine-6-carboxamide], for which the IC50 with HSP72 in U2OS cells (Homo sapiens) worked out at 17 nM; in the test on U2OS cells (Homo sapiens, U2OS), 77 nM.

In the case of `Cc1ccc(NC(=O)c2ccc3c(c2)OCCO3)cc1NC(=O)c1ccc2nc(N(C)CCN(C)C)ccc2c1` [Example 58, N-(5-(2,3-dihydrobenzo[b][1,4]dioxine-6-carboxamido)-2-methylphenyl)-2-((2-(dimethylamino)ethyl)(methyl)amino)quinoline-6-carboxamide], the IC50 in the test with HSP72 in U2OS cells (Homo sapiens) worked out at 15 nM; in the test with U2OS cells (Homo sapiens, U2OS) it was 33 nM.

Regarding `Cc1ccc2cc(C(=O)Nc3cc(NC(=O)c4ccc5c(c4)OCCO5)ccc3C(F)(F)F)ccc2n1` [Example 129, N-(5-(2,3-dihydrobenzo[b][1,4]dioxine-6-carboxamido)-2-(trifluoromethyl)phenyl)-2-methylquinoline-6-carboxamide], the IC50 with HSP72 in U2OS cells (Homo sapiens) stood at 344 nM; in the test with U2OS cells (Homo sapiens, U2OS) it was 162 nM.

For `Cc1ccc(NC(=O)c2ccc3c(c2)OCCO3)cc1NC(=O)c1ccc2c(c1)CC(C)O2` (stereo not drawn) [Example 14, N-(4-methyl-3-(2-methyl-2,3-dihydrobenzofuran-5-carboxamido)phenyl)-2,3-dihydrobenzo[b][1,4]dioxine-6-carboxamide], the IC50 came out at 81 nM with HSP72 in U2OS cells (Homo sapiens) and 94 nM in the test with U2OS cells (Homo sapiens, U2OS).

Turning to `Cc1ccc(NC(=O)c2ccc3c(c2)OCCO3)cc1NC(=O)c1cnc2cccc(CCN3CCCC3)c2c1` [Example 158, N-(5-(2,3-dihydrobenzo[b][1,4]dioxine-6-carboxamido)-2-methylphenyl)-5-(2-(pyrrolidin-1-yl)ethyl)quinoline-3-carboxamide], the 50% inhibitory concentration (IC50) with HSP72 in U2OS cells (Homo sapiens) was determined as 239 nM; with U2OS cells (Homo sapiens, U2OS), 202 nM.

On to `Cc1ccc(NC(=O)c2ccc3c(c2)OCCO3)cc1NC(=O)c1ccc2nc(OCCN(C)C)ccc2c1` [Example 62, N-(5-(2,3-dihydrobenzo[b][1,4]dioxine-6-carboxamido)-2-methylphenyl)-2-(2-(dimethylamino)ethoxy)quinoline-6-carboxamide], for which the IC50 is 17 nM in the test on HSP72 in U2OS cells (Homo sapiens) and 16 nM in the test with U2OS cells (Homo sapiens, U2OS).

With `Cc1ccc(NC(=O)c2ccc3c(c2)OCCO3)cc1NC(=O)c1ccc2nc(OCCCNC(=O)OC(C)(C)C)ccc2c1` [Example 35, tert-butyl (3-((6-((5-(2,3-dihydrobenzo[b][1,4]dioxine-6-carboxamido)-2-methylphenyl)carbamoyl)quinolin-2-yl)oxy)propyl)carbamate], the half-maximal inhibitory concentration (IC50) with HSP72 in U2OS cells (Homo sapiens) is 867 nM; in the test on U2OS cells (Homo sapiens, U2OS), 432 nM.

As for `Cc1ccc(NC(=O)c2ccc3c(c2)OCCO3)cc1NC(=O)c1ccc2c(ccn2C)c1` [Example 16, N-(5-(2,3-dihydrobenzo[b][1,4]dioxine-6-carboxamido)-2-methylphenyl)-1-methyl-1H-indole-5-carboxamide], the IC50 is 94 nM with HSP72 in U2OS cells (Homo sapiens) and 31 nM in the test with U2OS cells (Homo sapiens, U2OS).

As to `COCc1ccc2cc(C(=O)Nc3cc(NC(=O)c4ccc5c(c4)OCCO5)ccc3C)ccc2n1` [Example 137, N-(5-(2,3-dihydrobenzo[b][1,4]dioxine-6-carboxamido)-2-methylphenyl)-2-(methoxymethyl)quinoline-6-carboxamide], the concentration for half-maximal inhibition (IC50) in the test on HSP72 in U2OS cells (Homo sapiens) is 15 nM; in the test with U2OS cells (Homo sapiens, U2OS), 26 nM.

Turning to `Cc1ccc(NC(=O)c2ccc3c(c2)OCCO3)cc1NC(=O)c1ccc2c(c1)CCCO2` [Example 9, N-(3-(chroman-6-carboxamido)-4-methylphenyl)-2,3-dihydrobenzo[b][1,4]dioxine-6-carboxamide], the half-maximal inhibitory concentration (IC50) with HSP72 in U2OS cells (Homo sapiens) turned out to be 22 nM; in the test on U2OS cells (Homo sapiens, U2OS), 90 nM.

In the case of `Cc1ccc(NC(=O)c2ccc3c(c2)OCCO3)cc1NC(=O)c1ccc(OCc2cscn2)nc1` [Example 13, N-(5-(2,3-dihydrobenzo[b][1,4]dioxine-6-carboxamido)-2-methylphenyl)-6-(thiazol-4-ylmethoxy)nicotinamide], the half-maximal inhibitory concentration (IC50) was 262 nM in the test on HSP72 in U2OS cells (Homo sapiens) and 217 nM in the test with U2OS cells (Homo sapiens, U2OS).

For the compound `Cc1ccc(NC(=O)c2ccc3c(c2)OCCO3)cc1NC(=O)c1ccc(OCc2ccccn2)cc1` [Example 19, N-(4-methyl-3-(4-(pyridin-2-ylmethoxy)benzamido)phenyl)-2,3-dihydrobenzo[b][1,4]dioxine-6-carboxamide], the IC50 in the test with HSP72 in U2OS cells (Homo sapiens) turned out to be 289 nM; with U2OS cells (Homo sapiens, U2OS) it was 320 nM.

Consider `CNc1ccc2cc(C(=O)Nc3cc(NC(=O)c4ccc5c(c4)OCCO5)ccc3C)ccc2n1` [Example 79, N-(5-(2,3-dihydrobenzo[b][1,4]dioxine-6-carboxamido)-2-methylphenyl)-2-(methylamino)quinoline-6-carboxamide], for which the half-inhibitory concentration (IC50) was determined as 70 nM in the test with HSP72 in U2OS cells (Homo sapiens) and 54 nM in the test with U2OS cells (Homo sapiens, U2OS).

“N-(5-(2,3-dihydrobenzo[b][1,4]dioxine-6-carboxamido)-2-methylphenyl)-34(2-methoxyethyl)amino)-2-(2-(pyrrolidin-1-yl)ethoxy)quinoline-6-carboxamide [Example 150]”: the concentration for half-maximal inhibition (IC50) is 98 nM with HSP72 in U2OS cells and 86 nM in the test on U2OS cells.

For the compound `Cc1ccc(NC(=O)c2ccc3c(c2)OCCO3)cc1NC(=O)c1ccc2sccc2c1` [Example 18, N-(3-(benzo[b]thiophene-5-carboxamido)-4-methylphenyl)-2,3-dihydrobenzo[b][1,4]dioxine-6-carboxamide], the IC50 in the test with HSP72 in U2OS cells (Homo sapiens) was 62 nM; in the test on U2OS cells (Homo sapiens, U2OS), 34 nM.

As to `Cc1ccc(NC(=O)c2ccc3c(c2)OCCO3)cc1NC(=O)c1ccc2[nH]c(=O)ccc2c1` [Example 48, N-(5-(2,3-dihydrobenzo[b][1,4]dioxine-6-carboxamido)-2-methylphenyl)-2-oxo-1,2-dihydroquinoline-6-carboxamide], the concentration for half-maximal inhibition (IC50) was 141 nM with HSP72 in U2OS cells (Homo sapiens) and 172 nM in the test on U2OS cells (Homo sapiens, U2OS).

As for `Cc1ccc(NC(=O)c2ccc3c(c2)OCCO3)cc1NC(=O)c1ccc2c(c1)CCN2` [Example 84, N-(5-(2,3-dihydrobenzo[b][1,4]dioxine-6-carboxamido)-2-methylphenyl)indoline-5-carboxamide], the half-inhibitory concentration (IC50) amounted to 184 nM in the test with HSP72 in U2OS cells (Homo sapiens) and 95 nM in the test on U2OS cells (Homo sapiens, U2OS).

Take `CNC(=O)c1ccc(C(=O)Nc2cc(NC(=O)c3ccc4c(c3)OCCO4)ccc2C)cn1` [Example 33, N5-(5-(2,3-dihydrobenzo[b][1,4]dioxine-6-carboxamido)-2-methylphenyl)-N2-methylpyridine-2,5-dicarboxamide]: the IC50 with HSP72 in U2OS cells (Homo sapiens) amounted to 797 nM; in the test on U2OS cells (Homo sapiens, U2OS), 230 nM.
